Source: PubChem BioAssay (NCI)
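The concentration for 50% growth inhibition is given as GI50. TGI is the concentration that stops growth completely.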

Assays:
Test in all cases: inhibition of tumour cell growth, NCI panel, 384-well format
MALME-3M melanoma = system: MALME-3M melanoma
HCC-2998 colon = system: HCC-2998 colon
OVCAR-5 ovarian = system: OVCAR-5 ovarian
IGROV1 ovarian = system: IGROV1 ovarian
HS 578T breast = system: HS 578T breast
OVCAR-3 ovarian = system: OVCAR-3 ovarian
SW-620 colon = system: SW-620 colon
NCI-H322M lung = system: NCI-H322M lung
OVCAR-4 ovarian = system: OVCAR-4 ovarian
UO-31 renal = system: UO-31 renal
HCT-15 colon = system: HCT-15 colon
SNB-19 CNS = system: SNB-19 CNS
TK-10 renal = system: TK-10 renal
RXF 393 renal = system: RXF 393 renal
NCI-H522 lung = system: NCI-H522 lung
SNB-75 CNS = system: SNB-75 CNS
ACHN renal = system: ACHN renal
MOLT-4 leukemia = system: MOLT-4 leukemia
M14 melanoma = system: M14 melanoma
HL-60(TB) leukemia = system: HL-60(TB) leukemia
SK-MEL-28 melanoma = system: SK-MEL-28 melanoma
T-47D breast = system: T-47D breast
HT29 colon = system: HT29 colon
BT-549 breast = system: BT-549 breast
PC-3 prostate = system: PC-3 prostate
HOP-92 NSCLC = system: HOP-92 NSCLC
RPMI-8226 leukemia = system: RPMI-8226 leukemia
SF-268 CNS = system: SF-268 CNS
NCI-H460 NSCLC = system: NCI-H460 NSCLC

CN1CCN(c2ccc(Nc3ncc4cc5n(c4n3)C3(CCCCC3)CNC5=O)nc2)CC1
GI50 (MALME-3M melanoma): 1450 nM
TGI (MALME-3M melanoma): 4.22 µM
GI50 (HCC-2998 colon): 2350 nM
TGI (HCC-2998 colon): 5.48 µM
GI50 (OVCAR-5 ovarian): 2040 nM
TGI (OVCAR-5 ovarian): > 100 µM
GI50 (IGROV1 ovarian): 4.12 µM
TGI (IGROV1 ovarian): > 100 µM
GI50 (HS 578T breast): 2090 nM
TGI (HS 578T breast): 4.09 µM
GI50 (OVCAR-3 ovarian): 3.05 µM
TGI (OVCAR-3 ovarian): 7.81 µM
GI50 (SW-620 colon): 1090 nM
TGI (SW-620 colon): 10.2 µM
GI50 (NCI-H322M lung): 2170 nM
TGI (NCI-H322M lung): 7.5 µM
GI50 (OVCAR-4 ovarian): 5.31 µM
TGI (OVCAR-4 ovarian): 14.6 µM
GI50 (UO-31 renal): 1360 nM
TGI (UO-31 renal): > 23.3 µM
GI50 (HCT-15 colon): 2140 nM
TGI (HCT-15 colon): 9.25 µM
GI50 (SNB-19 CNS): 3.99 µM
TGI (SNB-19 CNS): > 52.6 µM
GI50 (TK-10 renal): 2940 nM
TGI (TK-10 renal): 15.3 µM
GI50 (RXF 393 renal): 2150 nM
TGI (RXF 393 renal): 4.02 µM
GI50 (NCI-H522 lung): 7.65 µM
TGI (NCI-H522 lung): 18.9 µM
GI50 (SNB-75 CNS): 1890 nM
TGI (SNB-75 CNS): 4.35 µM
GI50 (ACHN renal): 1630 nM
TGI (ACHN renal): > 100 µM
GI50 (MOLT-4 leukemia): 116 nM
TGI (MOLT-4 leukemia): 931 nM
GI50 (M14 melanoma): 1480 nM
TGI (M14 melanoma): 4.85 µM
GI50 (HL-60(TB) leukemia): 139 nM
TGI (HL-60(TB) leukemia): 1770 nM
GI50 (SK-MEL-28 melanoma): 2470 nM
TGI (SK-MEL-28 melanoma): 14.5 µM
GI50 (T-47D breast): 7.74 µM
TGI (T-47D breast): 23.3 µM
GI50 (HT29 colon): 1460 nM
TGI (HT29 colon): 12.1 µM
GI50 (BT-549 breast): 2000 nM
TGI (BT-549 breast): 3.9 µM
GI50 (PC-3 prostate): 2710 nM
TGI (PC-3 prostate): > 39 µM
GI50 (HOP-92 NSCLC): 2280 nM
TGI (HOP-92 NSCLC): > 24.2 µM
GI50 (RPMI-8226 leukemia): 245 nM
TGI (RPMI-8226 leukemia): 1500 nM
GI50 (SF-268 CNS): 1810 nM
TGI (SF-268 CNS): 4.14 µM
GI50 (NCI-H460 NSCLC): 1330 nM
TGI (NCI-H460 NSCLC): 3.74 µM
